Assay: Study 1 blood chemistry
Type: in vivo, human
Conditions: for Gamma-glutamyl: in U/L (unit assumed)
Experimental: Study 1 design. For study 1 the subjects reported to the laboratory in the morning following an overnight fast. Before ingestion of one of the supplemental treatments, a flexible sterile polyethylene catheter was inserted into a forearm vein using sterile procedures and a pre-ingestion blood sample was drawn. Subsequent blood samples were taken at 0, 2, 5, 10, 15, 25, 35, 45, 60, 90, 120 and 180 min after ingestion of the treatment. Plasma was separated and samples were stored frozen at −70° C. for analysis of HMB concentration. In addition, a portion of the pre-ingestion and 180 minute blood samples were used for measurements (LabCorp, Kansas City, Mo.) of glucose, uric acid, blood urea nitrogen (BUN), creatinine, sodium, potassium, chloride, carbon dioxide, phosphorous, protein, albumin, globulin, albumin:globulin ratio, total bilirubin, direct bilirubin, alkaline phosphatase, lactate dehydrogenase, aspartate aminotransferase (AST), alanine aminotransferase (ALT), gamma-glutamyl transpeptidase (GGT), iron binding capacity (TIBC), unsaturated iron binding capacity (UIBC), iron, iron saturation, total cholesterol, triglycerides, high density lipoprotein (HDL), low density lipoprotein (LDL), and cholesterol ratio. A complete blood count (CBC) was also performed before and after the 180 min treatment period. Subjects also completed a brief questionnaire to report any physical symptoms (such as nausea, headache, etc) they may have experienced during the experiment.
The data were analyzed using a crossover design with Proc GLM in SAS. (45) For the timed sampling of plasma HMB a repeated measures polynomial model was used. The model included subject, order, and treatment main effects and time by treatment interaction where appropriate. For other parameters Proc GLM was also used with subject, order, and treatment main effects and the p values are reported for the treatment main effect. Statistical significance was determined for p<0.05 and a trend was determined for 0.05<p<0.10.

[1] = After (180 min), listed as Free Acid Gel Swallow
[2] = Before to After, listed as Free Acid Gel Swallow
[3] = Before, listed as Free Acid Gel Swallow

In the case of `CC(C)(O)CC(=O)O` [HMB-Acid Gel Swallow, 3-hydroxy-3-methylbutyric acid], the Albumin (After (180 min)) is reported as 4.1 ± 0.2 g/dL, the “Direct Bilirubin” value (After (180 min)) is reported as 0.1 ± 0.01 mg/dL and the “A:G Ratio” value [1] is reported as 1.9 ± 0.1. The “Alanine Aminotransferase” value [1] was 15.6 ± 1.3 IU/L, the “Alkaline Phosphatase” value [1] was 64.4 ± 6.7 IU/L and the “Aspartate Aminotransferase” value [1] was 23.1 ± 2.0 IU/L. The “Blood Urea Nitrogen” value [1] was 14.4 ± 1.5 mg/dL, the CO2 [1] was 24.3 ± 0.5 mEq/L and the Chloride [1] was 103.3 ± 0.5 mEq/L. The “Cholesterol Ratio” value [1] was 3.3 ± 0.3, the Creatinine [1] was 0.9 ± 0.1 mg/dL and the Globulin [1] was 2.2 ± 0.1 g/dL. The Glucose [1] was 73.3 ± 4.1 mg/dL, the HDL [1] was 48.5 ± 3.7 mg/dL and the Iron [1] was 96.3 ± 17.3 µg/dL. The “Iron Binding Capacity” value [1] was 333.4 ± 35.2 µg/dL, the “Iron Saturation” value [1] was 33.5 ± 8.4% and the LDL [1] was 85.6 ± 4.1 mg/dL. The “Lactate Dehydrogenase” value [1] was 166.3 ± 11.1 IU/L, the Phosphorus [1] was 3.4 ± 0.1 mg/dL and the Potassium [1] was 4.6 ± 0.3 mEq/L. The Protein [1] was 6.3 ± 0.2 g/dL, the Sodium [1] was 138.3 ± 0.9 mEq/L and the “Total Bilirubin” value [1] was 0.5 ± 0.07 mg/dL. For the same compound, the “Total Cholesterol” value [1] was 153.3 ± 5.6 mg/dL, the Triglycerides [1] was 87.5 ± 14.8 mg/dL and the UIBC [1] was 237.1 ± 49.2 µg/dL. For the same compound, the “Uric Acid” value [1] was 4.9 ± 0.4 mg/dL, the Gamma-glutamyl [1] was 13.5 ± 1.1 and the “A:G Ratio” value (Before) was 1.9 ± 0.1. For the same compound, the Creatinine (Before) was 1.0 ± 0.1 mg/dL, the “Direct Bilirubin” value (Before) was 0.1 ± 0.01 mg/dL and the “Total Bilirubin” value (Before) was 0.4 ± 0.05 mg/dL. The “A:G Ratio % Change” value [2] was 0.0%, the “Alanine Aminotransferase % Change” value [2] was −1.6% and the “Albumin % Change” value [2] was 1.9%. The “Alkaline Phosphatase % Change” value [2] was 0.8%, the “Aspartate Aminotransferase % Change” value [2] was −3.6% and the “Blood Urea Nitrogen % Change” value [2] was −6.5%. For the same compound, the “CO2 % Change” value [2] was 8.1%, the “Chloride % Change” value [2] was −0.4% and the “Cholesterol Ratio % Change” value [2] was −3.3%. The “Creatinine % Change” value [2] was −4.7%, the “Direct Bilirubin % Change” value [2] was 7.9% and the “Gamma-glutamyl % Change” value [2] was −6.1%. For the same compound, the “Globulin % Change” value [2] was 0.6%, the “Glucose % Change” value [2] was 3.9% and the “HDL % Change” value [2] was 3.5%. For the same compound, the “Iron % Change” value [2] was 12.6%, the “Iron Binding Capacity % Change” value [2] was 1.4% and the “Iron Saturation % Change” value [2] was 9.4%. The “LDL % Change” value [2] was −3.1%, the “Lactate Dehydrogenase % Change” value [2] was −1.5% and the “Phosphorus % Change” value [2] was −15.6%. For the same compound, the “Potassium % Change” value [2] was 11.4%, the “Protein % Change” value [2] was 1.4% and the “Sodium % Change” value [2] was −0.2%. For the same compound, the “Total Bilirubin % Change” value [2] was 23.3%, the “Total Cholesterol % Change” value [2] was −0.2% and the “Triglycerides % Change” value [2] was −4.1%. The “UIBC % Change” value [2] was −2.5%, the “Uric Acid % Change” value [2] was 0.8% and the “Alanine Aminotransferase” value [3] was 15.9 ± 1.5 IU/L. The Albumin [3] was 4.0 ± 0.2 g/dL, the “Alkaline Phosphatase” value [3] was 63.9 ± 5.8 IU/L and the “Aspartate Aminotransferase” value [3] was 24.0 ± 2.2 IU/L. The “Blood Urea Nitrogen” value [3] was 15.4 ± 1.6 mg/dL, the CO2 [3] was 22.4 ± 0.7 mEq/L and the Chloride [3] was 103.6 ± 0.8 mEq/L. For the same compound, the “Cholesterol Ratio” value [3] was 3.4 ± 0.2, the Globulin [3] was 2.2 ± 0.1 g/dL and the Glucose [3] was 70.5 ± 1.7 mg/dL. For the same compound, the HDL [3] was 46.9 ± 3.4 mg/dL, the Iron [3] was 85.5 ± 19.2 µg/dL and the “Iron Binding Capacity” value [3] was 328.6 ± 31.0 µg/dL. The “Iron Saturation” value [3] was 30.6 ± 9.4%, the LDL [3] was 88.4 ± 3.0 mg/dL and the “Lactate Dehydrogenase” value [3] was 168.8 ± 10.4 IU/L. The Phosphorus [3] was 4.0 ± 0.1 mg/dL, the Potassium [3] was 4.2 ± 0.1 mEq/L and the Protein [3] was 6.2 ± 0.2 g/dL. For the same compound, the Sodium [3] was 138.5 ± 1.1 mEq/L, the “Total Cholesterol” value [3] was 153.5 ± 5.3 mg/dL and the Triglycerides [3] was 91.3 ± 17.0 mg/dL. For the same compound, the UIBC [3] was 243.1 ± 47.4 µg/dL, the “Uric Acid” value [3] was 4.9 ± 0.4 mg/dL and the Gamma-glutamyl [3] was 14.4 ± 1.6.
